Data as given in patent US7317038B2, “Nerve regeneration promoters containing semaphorin inhibitor as the active ingredient” (Dainippon Sumitomo Pharma Co., Ltd., priority 2000, dated 2008).
“Also recorded” adds a separate entry of the source.

Assays:
COS7 cells = test: Effect on cell proliferation (MTT); format: cell-based; conditions: two days
Protocol: COS7 cells were seeded onto a 96-well plate (medium 100 μl/well) at 10000 cells per well. At the same time, SPF-3059-1 of various concentrations was added and the cells were cultivated for two days in the presence of 5% CO2 at 37° C. Each well was then added with 10 μl of MTT solution at 5 mg/ml and cultured for another one hour. Subsequently, the culture supernatant was removed and formazan (an MTT derivative produced in viable cells) accumulated in the cells was dissolved by the addition of 50 μl DMSO and then the absorbance at 570 nm was measured to determine the proliferation of COS7 cells. […] The longitudinal and lateral axes in the figure show cell proliferation and the SPF-3059-1 concentration, respectively. Besides, the standard deviation (n=4) was added to each column.
The same effect on cell proliferation as in Example 9 was examined for the compounds, SPF-3059-1, SPF-3059-2 and SPF-3059-5. The wells with these compounds were served as samples, the wells with PBS were served as control, and the wells for which the experiment was carried out without adding the cells was served as blank. IC50 (μg/ml), the inhibitory rate for cell proliferation, was determined, which is calculated by the equation shown below. The inhibitory rate for cell proliferation (%)=(1−(absorbance of a sample well−absorbance of the blank well)/(absorbance of the control well−absorbance of the blank well))×100

Sema3A = target: T1, Sema3A (Mus musculus, UniProt O08665); test: Collagen gel co-culture: suppression of neurite outgrowth inhibitory action of Sema3A; format: cell-based; design: key to suppression of neurite outgrowth inhibitory activity of Sema3A, score / inhibition of neurite outgrowth-inhibitory action of Sema3A, score: neurites outgrew in a complete concentric circular shape just like for the control groups where Sema3A-non-expressing COS7 cells were used, it was scored +++ (a strong inhibitory effect for Sema3A); outgrowth was found almost in a concentric circular shape accompanied with a little suppression of the outgrowth toward the direction of Sema3A-expressing COS cells, it was scored ++; outgrowth toward the direction of Sema3A-expressing COS cells is fairly suppressed to present a crescent shape, it was scored +; outgrowth toward the direction of Sema3A-expressing COS cells was not found at all (no inhibitory effect for Sema3A), it was scored −; conditions: for suppression of neurite outgrowth inhibitory activity of Sema3A, score: Example 5
T1 construct: expressed in transfected cells; host or cells: COS7
T1 sequence (O08665 21-772): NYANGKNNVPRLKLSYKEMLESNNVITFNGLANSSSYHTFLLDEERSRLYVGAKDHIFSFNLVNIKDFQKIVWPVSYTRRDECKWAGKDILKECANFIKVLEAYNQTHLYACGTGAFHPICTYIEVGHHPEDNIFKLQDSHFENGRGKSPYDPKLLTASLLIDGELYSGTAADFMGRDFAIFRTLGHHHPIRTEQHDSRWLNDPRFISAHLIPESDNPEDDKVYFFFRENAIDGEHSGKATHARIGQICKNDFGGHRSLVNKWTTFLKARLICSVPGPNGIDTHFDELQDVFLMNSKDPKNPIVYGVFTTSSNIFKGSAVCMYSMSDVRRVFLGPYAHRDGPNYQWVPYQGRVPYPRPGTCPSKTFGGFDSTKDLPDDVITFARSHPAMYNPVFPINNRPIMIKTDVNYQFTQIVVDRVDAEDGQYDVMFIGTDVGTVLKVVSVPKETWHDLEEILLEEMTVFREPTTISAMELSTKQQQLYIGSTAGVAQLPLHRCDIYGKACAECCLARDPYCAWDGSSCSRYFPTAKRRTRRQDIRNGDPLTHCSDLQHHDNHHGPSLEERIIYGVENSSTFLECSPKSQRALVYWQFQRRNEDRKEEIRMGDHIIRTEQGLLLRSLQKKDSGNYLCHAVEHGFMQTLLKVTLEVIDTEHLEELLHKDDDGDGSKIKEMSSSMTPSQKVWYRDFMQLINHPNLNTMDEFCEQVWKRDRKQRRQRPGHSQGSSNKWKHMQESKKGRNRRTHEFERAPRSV
Protocol: Whether the object compounds (SPF-3059-1, M162, A721) have persistent inhibitory action to Sema3A was analyzed by the collagen gel co-culture method (Neuroprotocols 4, 116, 1994) using Sema3A-expressing COS7 cell clumps and 7- or 8-day-old chick embryo dorsal root ganglions. The Sema3A-expressing COS7 cell clumps were generated as follows. 1 μg of Sema3A-expression plasmid was introduced into COS7 cells (100000 cells/35 mm culture plate), which were cultured overnight, with the FuGENE6 transfection reagent (Roche). 2.5 hours after the starting of the transfection, the COS7 cells were collected by trypsinization and centrifugation, and re-suspended in a medium of 200 μl. 20 μl of the cell suspension was placed on the lid of the culture plate (inside) and the lid was turned over, and then the suspension was cultivated for 20 hours (hanging drop culture) (Cell 78, 425, 1994). When the culture was over, aggregated COS7 cells (clump) were collected and trimmed to a diameter of 0.5 mm. The Sema3A-expressing COS7 cell clump and the above-mentioned dorsal root ganglions were placed in parallel at a distance of 0.5 to 1 mm in a 0.2% collagen gel which was then cultivated in a medium containing the aforementioned compounds at various concentrations for 2 days at 37° C. under 5% CO2. Glutaraldehyde was quickly added therein to make the final concentration 1%. The cultures were then left for 1 hour at room temperature so that the tissues were fixed, and the neurite outgrowth was microscopically observed. The results are found in FIG. 4.
When a medium not containing a subject compound was used, neurites were unable to grow towards the COS7 cell clump with the high concentration of Sema3A and grew only to the opposite direction.
In a similar way as in Example 4, suppression of the neurite outgrowth inhibitory activity was analyzed for the compounds, SPF-3059-1, SPF-3059-2 and SPF-3059-5. When the neurites outgrew in a complete concentric circular shape just like for the control groups where Sema3A-non-expressing COS7 cells were used, it was scored +++ (a strong inhibitory effect for Sema3A). When the outgrowth was found almost in a concentric circular shape accompanied with a little suppression of the outgrowth toward the direction of Sema3A-expressing COS cells, it was scored ++. […] When the outgrowth toward the direction of Sema3A-expressing COS cells was not found at all (no inhibitory effect for Sema3A), it was scored −.

CC(=O)c1c(C)c(C(=O)C2COc3cc(O)c(O)c(C(=O)O)c3C2=O)cc2c(=O)c3c(C(=O)O)c(O)c(O)cc3oc12 (stereo not drawn) [SPF-3059-1]
IC50 (COS7 cells; Chlorocebus aethiops, COS-7, 48 h, read-out: IC50, inhibitory rate for cell proliferation): > 300 µg/mL | suppressing activity for cell proliferation (in words) (COS7 cells): no suppressing activity | suppression of neurite outgrowth inhibitory activity of Sema3A, score (Sema3A; 0.5 μg/ml compound): + | suppression of neurite outgrowth inhibitory activity of Sema3A, score (Sema3A; 1.0 μg/ml compound): ++ | suppression of neurite outgrowth inhibitory activity of Sema3A, score (Sema3A; 2.0 μg/ml compound): +++ | persistent inhibitory action to Sema3A (neurite outgrowth toward Sema3A-expressing COS7 cell clump) (Sema3A; collagen gel co-culture, 2 days): persistently inhibit Sema3A activities; also recorded: persistently inhibited the action of Sema3A
